Measurements taken from ChEMBL document CHEMBL3580664, “Synthesis and Pharmacology of α/β(3)-Peptides Based on the Melanocortin Agonist Ac-His-dPhe-Arg-Trp-NH2 Sequence” (ACS Med Chem Lett, 2015).
Square brackets hold non-standard residues; d marks the D form. Peptide text beside a SMILES is read from it.

Tests used:
[1] = biological target: Melanocyte-stimulating hormone receptor (Mus musculus, UniProt Q01727); assay: Agonist activity at mouse MC1 receptor expressed in HEK-293 cells assessed as cAMP response measured after 2 hrs incubation by cAMP Alphascreen assay; type: functional, cell-based, HEK293
Melanocortin receptor 3 = Melanocortin receptor 3 (Mus musculus, UniProt P33033); assay: Agonist activity at mouse MC3 receptor expressed in HEK-293 cells assessed as cAMP response measured after 2 hrs incubation by cAMP Alphascreen assay; type: functional, cell-based, HEK293
Melanocortin receptor 4 = Melanocortin receptor 4 (Mus musculus, UniProt P56450); assay: Agonist activity at mouse MC4 receptor expressed in HEK-293 cells assessed as cAMP response measured after 2 hrs incubation by cAMP Alphascreen assay; type: functional, cell-based, HEK293
Melanocortin receptor 5 = Melanocortin receptor 5 (Mus musculus, UniProt P41149); assay: Agonist activity at mouse MC5 receptor expressed in HEK-293 cells assessed as cAMP response measured after 2 hrs incubation by cAMP Alphascreen assay; type: functional, cell-based, HEK293
Mus musculus = organism: Mus musculus; assay: Selectivity ratio for mouse MC3 receptor over mouse MC4 receptor
[2] = biological target: Melanocortin receptor 3 (Mus musculus) (UniProt P33033); assay: Agonist activity at mouse MC3 receptor expressed in HEK-293 cells assessed as cAMP response measured at 100 uM after 2 hrs incubation by cAMP Alphascreen assay relative to control; type: functional, cell-based; conditions: HEK293
[3] = biological target: Melanocortin receptor 4 (Mus musculus) (UniProt P56450); assay: Agonist activity at mouse MC4 receptor expressed in HEK-293 cells assessed as cAMP response measured at 100 uM after 2 hrs incubation by cAMP Alphascreen assay relative to control; type: functional, cell-based; conditions: HEK293
[4] = biological target: Melanocortin receptor 5 (Mus musculus) (UniProt P41149); assay: Agonist activity at mouse MC5 receptor expressed in HEK-293 cells assessed as cAMP response measured at 100 uM after 2 hrs incubation by cAMP Alphascreen assay relative to control; type: functional, cell-based; conditions: HEK293
[5] = biological target: Melanocyte-stimulating hormone receptor (Mus musculus) (UniProt Q01727); assay: Agonist activity at mouse MC1 receptor expressed in HEK-293 cells assessed as cAMP response measured at 100 uM after 2 hrs incubation by cAMP Alphascreen assay relative to control; type: functional, cell-based; conditions: HEK293
Sequence of Melanocyte-stimulating hormone receptor (Mus musculus) (Q01727 whole entry, looked up): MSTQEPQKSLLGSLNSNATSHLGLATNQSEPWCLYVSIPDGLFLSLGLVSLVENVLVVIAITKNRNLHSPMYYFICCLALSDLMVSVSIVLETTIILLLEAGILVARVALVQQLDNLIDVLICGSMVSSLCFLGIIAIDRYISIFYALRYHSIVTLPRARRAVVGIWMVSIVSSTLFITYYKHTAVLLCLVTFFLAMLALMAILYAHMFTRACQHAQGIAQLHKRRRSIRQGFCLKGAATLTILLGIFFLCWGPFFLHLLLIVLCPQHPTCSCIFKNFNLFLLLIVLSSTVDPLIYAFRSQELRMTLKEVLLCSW

Sequence of Melanocortin receptor 5 (P41149 whole entry): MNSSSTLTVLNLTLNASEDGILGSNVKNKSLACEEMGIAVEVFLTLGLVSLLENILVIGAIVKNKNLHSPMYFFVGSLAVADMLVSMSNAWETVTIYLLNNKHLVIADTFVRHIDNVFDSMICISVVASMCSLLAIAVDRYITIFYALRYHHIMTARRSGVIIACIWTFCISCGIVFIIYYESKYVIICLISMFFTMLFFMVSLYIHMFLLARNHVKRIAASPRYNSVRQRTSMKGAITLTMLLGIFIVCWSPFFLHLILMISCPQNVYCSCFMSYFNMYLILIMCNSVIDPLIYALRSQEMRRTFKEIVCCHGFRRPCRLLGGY
Sequence of Melanocyte-stimulating hormone receptor (Q01727 whole entry): as the sequence (Q01727 whole entry, looked up) above
Sequence of Melanocortin receptor 4 (P56450 whole entry): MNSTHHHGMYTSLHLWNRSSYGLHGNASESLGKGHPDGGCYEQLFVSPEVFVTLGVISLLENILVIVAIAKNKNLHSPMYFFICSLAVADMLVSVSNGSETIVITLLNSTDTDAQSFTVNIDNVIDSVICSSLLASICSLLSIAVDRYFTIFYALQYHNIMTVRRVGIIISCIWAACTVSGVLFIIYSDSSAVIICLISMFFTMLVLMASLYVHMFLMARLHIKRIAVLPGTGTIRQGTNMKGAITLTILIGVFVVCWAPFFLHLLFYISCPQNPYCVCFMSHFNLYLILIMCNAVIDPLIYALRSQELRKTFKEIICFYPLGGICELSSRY
Sequence of Melanocortin receptor 3 (P33033 whole entry): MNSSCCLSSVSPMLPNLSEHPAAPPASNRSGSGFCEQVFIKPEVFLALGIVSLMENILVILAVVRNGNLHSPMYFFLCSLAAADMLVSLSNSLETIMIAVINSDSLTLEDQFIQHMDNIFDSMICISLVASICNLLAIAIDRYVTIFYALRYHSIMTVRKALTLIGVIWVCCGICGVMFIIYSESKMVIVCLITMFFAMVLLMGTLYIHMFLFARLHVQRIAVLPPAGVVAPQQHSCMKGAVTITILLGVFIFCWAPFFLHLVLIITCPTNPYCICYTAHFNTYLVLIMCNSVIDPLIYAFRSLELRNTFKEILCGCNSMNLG
Sequence of Melanocortin receptor 3 (Mus musculus) (P33033 whole entry): as above
Sequence of Melanocortin receptor 5 (Mus musculus) (P41149 whole entry): as the sequence (P41149 whole entry) above
Sequence of Melanocortin receptor 4 (Mus musculus) (P56450 whole entry): as the sequence (P56450 whole entry) above

| EC50 [1] [nM] | EC50 (Melanocortin receptor 3) [nM] | EC50 (Melanocortin receptor 4) [nM] | EC50 (Melanocortin receptor 5) [nM] | Selectivity ratio (Mus musculus) | Activity [2] [%] | Activity [3] [%] | Activity [4] [%] | Activity [5] [%] | Structure (SMILES) |
| --- | --- | --- | --- | --- | --- | --- | --- | --- | --- |
| 10000 |  |  |  |  | 40 | 70 | 70 |  | CC(=O)N[C@H](Cc1ccccc1)C(=O)N[C@@H](CCCN=C(N)N)C(=O)N[C@@H](Cc1c[nH]c2ccccc12)C(N)=O (Ac-[dF]-Arg-Trp-NH2) |
| 33 | 415 | 12 | 5.6 | 35 |  |  |  |  | CC(=O)N[C@@H](Cc1c[nH]cn1)C(=O)N[C@H](Cc1ccccc1)C(=O)N[C@@H](CCCNC(=N)N)C(=O)N[C@H](CC(N)=O)Cc1c[nH]c2ccccc12 |
|  | > 100000 | > 100000 | > 100000 |  |  |  |  |  | CC(=O)N[C@@H](Cc1ccccc1)C(=O)N[C@@H](CCCNC(=N)N)C(=O)N[C@@H](Cc1c[nH]c2ccccc12)C(N)=O (Ac-Phe-Arg-Trp-NH2) |

The next lines start with the compound.

| Structure (SMILES) | EC50 [1] [nM] | EC50 (Melanocortin receptor 3) [nM] | EC50 (Melanocortin receptor 4) [nM] | EC50 (Melanocortin receptor 5) [nM] | Selectivity ratio (Mus musculus) | Activity [2] [%] | Activity [3] [%] | Activity [4] [%] | Activity [5] [%] |
| --- | --- | --- | --- | --- | --- | --- | --- | --- | --- |
| CC(=O)N[C@@H](Cc1c[nH]cn1)C(=O)N[C@H](Cc1ccccc1)C(=O)N[C@@H](CCCNC(=N)N)CC(=O)N[C@@H](Cc1c[nH]c2ccccc12)C(N)=O | 37 | 854 | 70 | 73 | 12 |  |  |  |  |
| CC(=O)N[C@@H](Cc1c[nH]cn1)C(=O)N[C@@H](CC(=O)N[C@@H](CCCNC(=N)N)C(=O)N[C@@H](Cc1c[nH]c2ccccc12)C(N)=O)Cc1ccccc1 | 7030 |  |  |  |  | 50 | 60 | 60 |  |
| CC(=O)N[C@@H](Cc1cnc[nH]1)C(=O)N[C@H](Cc1ccccc1)C(=O)N[C@@H](CCCN=C(N)N)C(=O)N[C@@H](Cc1c[nH]c2ccccc12)C(N)=O |  |  | 5.6 |  |  |  |  |  |  |
| CC(=O)N[C@@H](Cc1c[nH]cn1)C(=O)N[C@@H](Cc1ccccc1)C(=O)N[C@@H](CCCN=C(N)N)C(=O)N[C@@H](Cc1c[nH]c2ccccc12)C(N)=O |  |  | 1210 | 70 |  |  |  |  |  |
| CC(=O)N[C@@H](Cc1ccccc1)C(=O)N[C@@H](CCCN=C(N)N)C(=O)N[C@@H](Cc1c[nH]c2ccccc12)C(N)=O (Ac-Phe-Arg-Trp-NH2) |  |  |  |  |  |  |  |  | 60 |
| CC(=O)N[C@@H](Cc1c[nH]cn1)C(=O)N[C@H](CC(=O)N[C@@H](CCCNC(=N)N)C(=O)N[C@@H](Cc1c[nH]c2ccccc12)C(N)=O)Cc1ccccc1 | 6580 |  | 7680 | 4810 |  | 70 |  |  |  |
